Key:
[1] = system: Klebsiella pneumoniae ATCC BAA-2470; assay: MIC test of compounds in combination with antibiotics, Klebsiella pneumoniae ATCC BAA-2470; settings: for MIC of biapenem in combination with compound, Klebsiella pneumoniae ATCC BAA-2470 NDM-1: Biapenem + compound (8 μg/mL); for MIC of meropenem in combination with compound, Klebsiella pneumoniae ATCC BAA-2470 NDM-1: Meropenem + compound (8 μg/mL)
Method: (§1) Strain preparation: the strains to be tested were streaked from glycerol tube at −80° C. onto Mueller Hinton II Agar plates. The plates were then placed in a 37° C. incubator and cultured for 18-24 hours.
(§2) Media preparation: CAMHB (Mueller Hinton II Broth): 22 g of powder was dissolved in 1 L of purified water and sterilized at 121° C. for 10 min for use. Saline: 8.5 g NaCl was dissolved in 1 L of pure water and sterilized at 121° C. for 30 min for use.
(§3) Preparation of compound and antibiotic stock solutions: the compound and antibiotic were dissolved in DMSO or water to 12.8 mg/mL.
(§4) 2-Fold gradient dilution of antibiotics: 300 μL of CAMHVIB medium was added to columns 2-12 of a 96-deep well plate. In column 1, 24 μL of antibiotic stock solution and 576 µL of CAMHB medium were added and mixed well, with a concentration of 512 μg/mL. 300 µL of antibiotic solution was transferred from the column 1 to the second column and mixed well. The process was repeated until column 11, and the column 12 was a blank control.
(§5) Dilution of combined compounds: the compound was diluted 400-fold to 32 μg/ml with CAMHB medium.
(§6) Working solution aliquoting: 25 μL of antibiotics was aliquoted into the 96-U bottom plate with a pipette, and 25 μL of combined compound was added to each well. If antibiotics were used alone, 25 μL of CAMHB medium was added.
(§7) Inoculum solution preparation: 5-6 single colonies were selected from the plate and suspended in normal saline. The bacterial suspension was adjusted to 0.2 (i.e., 0.5 McFarland turbidity, with a bacterial concentration was about 1 to 2×10^8 CFU/mL) with a turbidity meter. The bacterial suspension was diluted 100-fold with CAMHB medium for later use.
(§8) Inoculation: 50 μL of inoculum solution was transferred to the above 50 μL compound plate with a pipette.
(§9) Culture: The 96-U bottom plate was placed in an incubator at 37° C. for 18 to 20 h.
(§10) After the incubation, bacterial growth was visually observed, and the test plate was photographed and recorded.

[2] = system: Klebsiella pneumoniae ATCC BAA-1705; assay: MIC test of compounds in combination with antibiotics, Klebsiella pneumoniae ATCC BAA-1705; settings: for MIC of biapenem in combination with compound, Klebsiella pneumoniae ATCC BAA-1705 KPC-2: Biapenem + compound (8 μg/mL); for MIC of meropenem in combination with compound, Klebsiella pneumoniae ATCC BAA-1705 KPC-2: Meropenem + compound (8 μg/mL)
Method: as §1, §2, §3, §4, §5, §6, §7, §8, §9, §10

[3] = system: Escherichia coli ARLG 2829; assay: MIC test of compounds in combination with antibiotics, Escherichia coli ARLG 2829; settings: for MIC of biapenem in combination with compound, Escherichia coli ARLG-2829 NDM-5, OXA-1: Biapenem + compound (8 μg/mL); for MIC of meropenem in combination with compound, Escherichia coli ARLG-2829 NDM-5, OXA-1: Meropenem + compound (8 μg/mL)
[4] = system: Klebsiella pneumoniae ARLG 1196; assay: MIC test of compounds in combination with antibiotics, Klebsiella pneumoniae ARLG 1196; settings: for MIC of biapenem in combination with compound, Klebsiella pneumoniae ARLG-1196 CTM-1 group, SHV, NDM, TEM: Biapenem + compound (8 μg/mL); for MIC of meropenem in combination with compound, Klebsiella pneumoniae ARLG-1196 CTM-1 group, SHV, NDM, TEM: Meropenem + compound (8 μg/mL)
[5] = system: Acinetobacter baumannii ARLG-1852 OXA-23; assay: MIC test of compounds in combination with antibiotics, Acinetobacter baumannii ARLG-1852; settings: for MIC of biapenem in combination with compound, Acinetobacter baumannii ARLG-1852 OXA-23: Biapenem + compound (8 μg/mL); for MIC of meropenem in combination with compound, Acinetobacter baumannii ARLG-1852 OXA-23: Meropenem + compound (8 μg/mL)
Method: as §4, §5, §6, §7, §8, §9

[6] = system: Acinetobacter baumannii WX-AB005; assay: MIC test of compounds in combination with antibiotics, Acinetobacter baumannii WX-AB005; settings: for MIC of biapenem in combination with compound, Acinetobacter baumannii WX-AB005: Biapenem + compound (8 μg/mL); for MIC of meropenem in combination with compound, Acinetobacter baumannii WX-AB005: Meropenem + compound (8 μg/mL)
Method: as §4, §5, §6, §7, §8, §9

[7] = system: Acinetobacter baumannii ARLG-1791 OXA-23; assay: MIC test of compounds in combination with antibiotics, Acinetobacter baumannii ARLG-1791; settings: for MIC of biapenem in combination with compound, Acinetobacter baumannii ARLG-1791 OXA-23: Biapenem + compound (8 μg/mL); for MIC of meropenem in combination with compound, Acinetobacter baumannii ARLG-1791 OXA-23: Meropenem + compound (8 μg/mL)
Method: as §4, §5, §6, §7, §8, §9

[8] = system: Acinetobacter baumannii WX-AB013; assay: MIC test of compounds in combination with antibiotics, Acinetobacter baumannii WX-AB013; settings: for MIC of biapenem in combination with compound, Acinetobacter baumannii WX-AB013: Biapenem + compound (8 μg/mL); for MIC of meropenem in combination with compound, Acinetobacter baumannii WX-AB013: Meropenem + compound (8 μg/mL)
Method: as §4, §5, §6, §7, §8, §9

[9] = system: Acinetobacter baumannii ARLG-1809 OXA-23; assay: MIC test of compounds in combination with antibiotics, Acinetobacter baumannii ARLG-1809; settings: for MIC of biapenem in combination with compound, Acinetobacter baumannii ARLG-1809 OXA-23: Biapenem + compound (8 μg/mL); for MIC of meropenem in combination with compound, Acinetobacter baumannii ARLG-1809 OXA-23: Meropenem + compound (8 μg/mL)
Method: as §4, §5, §6, §7, §8, §9

[10] = system: Acinetobacter baumannii ARLG-1853 OXA-23; assay: MIC test of compounds in combination with antibiotics, Acinetobacter baumannii ARLG-1853; settings: for MIC of biapenem in combination with compound, Acinetobacter baumannii ARLG-1853 OXA-23: Biapenem + compound (8 μg/mL); for MIC of meropenem in combination with compound, Acinetobacter baumannii ARLG-1853 OXA-23: Meropenem + compound (8 μg/mL)
Method: as §4, §5, §6, §7, §8, §9

SMILES	MIC of biapenem in combination with compound, Klebsiella pneumoniae ATCC BAA-2470 NDM-1 [1] [µg/mL]	MIC of meropenem in combination with compound, Klebsiella pneumoniae ATCC BAA-2470 NDM-1 [1] [µg/mL]	MIC of biapenem in combination with compound, Klebsiella pneumoniae ATCC BAA-1705 KPC-2 [2] [µg/mL]	MIC of meropenem in combination with compound, Klebsiella pneumoniae ATCC BAA-1705 KPC-2 [2] [µg/mL]	MIC of biapenem in combination with compound, Escherichia coli ARLG-2829 NDM-5, OXA-1 [3] [µg/mL]	MIC of meropenem in combination with compound, Escherichia coli ARLG-2829 NDM-5, OXA-1 [3] [µg/mL]	MIC of biapenem in combination with compound, Klebsiella pneumoniae ARLG-1196 CTM-1 group, SHV, NDM, TEM [4] [µg/mL]	MIC of meropenem in combination with compound, Klebsiella pneumoniae ARLG-1196 CTM-1 group, SHV, NDM, TEM [4] [µg/mL]	MIC of biapenem in combination with compound, Acinetobacter baumannii ARLG-1852 OXA-23 [5] [µg/mL]	MIC of meropenem in combination with compound, Acinetobacter baumannii ARLG-1852 OXA-23 [5] [µg/mL]	MIC of biapenem in combination with compound, Acinetobacter baumannii WX-AB005 [6] [µg/mL]	MIC of meropenem in combination with compound, Acinetobacter baumannii WX-AB005 [6] [µg/mL]	MIC of biapenem in combination with compound, Acinetobacter baumannii ARLG-1791 OXA-23 [7] [µg/mL]	MIC of meropenem in combination with compound, Acinetobacter baumannii ARLG-1791 OXA-23 [7] [µg/mL]	MIC of biapenem in combination with compound, Acinetobacter baumannii WX-AB013 [8] [µg/mL]	MIC of meropenem in combination with compound, Acinetobacter baumannii WX-AB013 [8] [µg/mL]	MIC of biapenem in combination with compound, Acinetobacter baumannii ARLG-1809 OXA-23 [9] [µg/mL]	MIC of meropenem in combination with compound, Acinetobacter baumannii ARLG-1809 OXA-23 [9] [µg/mL]	MIC of biapenem in combination with compound, Acinetobacter baumannii ARLG-1853 OXA-23 [10] [µg/mL]	MIC of meropenem in combination with compound, Acinetobacter baumannii ARLG-1853 OXA-23 [10] [µg/mL]
CC(Sc1ccc2c(c1C(=O)O)OB(O)C1CC21)C1CCOCC1 (single isomer, unassigned) [Compound 17-b]	0.25	64	2	8	0.25	4	0.5	8	0.5	8	4	32	2	16	2	16	4	32	1	16
C[C@H](Sc1ccc2c(c1C(=O)O)OB(O)[C@@H]1C[C@H]21)[C@@H]1CCCO1 [Compound 18-a]	0.5	8	0.5	1	≤0.125	2	≤0.125	2	0.5	2	4	8	0.5	8	0.5	4	2	4	0.5	2
